pIC50: −log10 of the molar value.
What was measured:
Assay type in all cases: biochemical
JAK2 = JAK2 (Homo sapiens, UniProt O60674); experiment: JAK 2 enzymatic inhibitory activity IC50 assay (Caliper conversion rate); settings: Km ATP, 28° C., 1 hour
Description: (§1) Biological effect: intracytoplasmic JAK 1,2,3 enzymatic inhibitory activity IC50 assay
(§2) JAK1 buffer solution: 25 mM HEPES, pH 7.5, 0.01% Brij-35, 0.01 M Triton. JAK2,3 buffer solution: 50 mM HEPES, pH 7.5, 0.0015% Brij-35.
(§3) 2. Compound was formulated in 100% DMSO in a concentration gradient, deposited to a 384-well plate with a final concentration of 2% of DMSO.
(§4) 3. JAK2,3 enzymes were diluted to having an optimum concentration with the following buffer: 50 mM HEPES, pH 7.5, 0.0015% Brij-35, 2 mM DTT. JAK1 enzyme was diluted to having an optimum concentration with the following buffer: 25 mM HEPES, pH 7.5, 0.01% Brij-35, 2 mM DTT, 0.01M Triton. Then they were transferred to a 384-well plate and incubated with the compound for a certain time.
(§5) 4. JAK2,3 substrate was diluted to having an optimum concentration with the following buffer: 50 mM HEPES, pH 7.5, 0.0015% Brij-35, 10 mM MgCl2, Km adenosine triphosphate. JAK1 substrate was diluted to having an optimum concentration with the following buffer: 25 mM HEPES, pH 7.5, 0.01% Brij-35, 10 mM MgCl2, 0.01 M Triton. Km adenosine triphosphate was added into 384-well plates to initiate reactions, and the reaction were carried out at 28° C. for 1 hour.
(§6) 5. Read the conversion rate by Caliper Reader, and the inhibition rate are calculated according to the average of two tests.

JAK3 = target: T1, JAK3 (Homo sapiens, UniProt P52333); experiment: JAK 3 enzymatic inhibitory activity IC50 assay (Caliper conversion rate); settings: Km ATP, 28° C., 1 hour; read-out: JAK 3 enzymatic inhibitory activity IC50
T1 sequence (P52333 1-1124): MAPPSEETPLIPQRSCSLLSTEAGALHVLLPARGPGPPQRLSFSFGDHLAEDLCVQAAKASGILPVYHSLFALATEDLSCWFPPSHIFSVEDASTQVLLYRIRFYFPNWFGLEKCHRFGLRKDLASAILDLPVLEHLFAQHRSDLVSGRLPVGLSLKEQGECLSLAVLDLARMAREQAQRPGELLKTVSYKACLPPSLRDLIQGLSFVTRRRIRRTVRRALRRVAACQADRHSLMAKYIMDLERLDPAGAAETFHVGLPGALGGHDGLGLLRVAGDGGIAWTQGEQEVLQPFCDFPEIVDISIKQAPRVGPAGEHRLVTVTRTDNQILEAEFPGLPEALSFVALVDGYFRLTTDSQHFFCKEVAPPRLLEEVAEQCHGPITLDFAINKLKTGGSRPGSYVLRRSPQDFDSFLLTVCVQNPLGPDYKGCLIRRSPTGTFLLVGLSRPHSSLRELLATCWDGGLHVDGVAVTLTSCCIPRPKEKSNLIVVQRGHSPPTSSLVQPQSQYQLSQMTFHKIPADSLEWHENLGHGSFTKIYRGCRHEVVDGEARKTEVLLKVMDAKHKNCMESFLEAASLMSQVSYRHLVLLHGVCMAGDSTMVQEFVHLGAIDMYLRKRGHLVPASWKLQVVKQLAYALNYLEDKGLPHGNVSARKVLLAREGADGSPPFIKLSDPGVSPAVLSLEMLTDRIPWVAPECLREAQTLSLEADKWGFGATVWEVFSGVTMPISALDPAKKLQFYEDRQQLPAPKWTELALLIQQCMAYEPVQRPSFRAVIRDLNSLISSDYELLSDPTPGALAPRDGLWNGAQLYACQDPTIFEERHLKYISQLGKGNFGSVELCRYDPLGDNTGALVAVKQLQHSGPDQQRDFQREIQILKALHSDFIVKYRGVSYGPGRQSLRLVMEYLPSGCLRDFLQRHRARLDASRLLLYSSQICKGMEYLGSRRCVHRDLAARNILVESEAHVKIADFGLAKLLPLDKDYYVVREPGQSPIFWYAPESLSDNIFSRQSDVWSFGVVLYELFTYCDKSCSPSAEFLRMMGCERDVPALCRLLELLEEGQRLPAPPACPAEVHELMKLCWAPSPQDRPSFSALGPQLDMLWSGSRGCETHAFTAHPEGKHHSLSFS
Description: as §1, §2, §3
as §4, with “time. […]” for “time.”
as §6

JAK1 = JAK1 (Homo sapiens, UniProt P23458); experiment: JAK 1 enzymatic inhibitory activity IC50 assay (Caliper conversion rate); settings: Km ATP, 28° C., 1 hour
Description: as §1, §2, §3, §4, §5, §6

Sequence of JAK1 (P23458 whole entry, species assumed): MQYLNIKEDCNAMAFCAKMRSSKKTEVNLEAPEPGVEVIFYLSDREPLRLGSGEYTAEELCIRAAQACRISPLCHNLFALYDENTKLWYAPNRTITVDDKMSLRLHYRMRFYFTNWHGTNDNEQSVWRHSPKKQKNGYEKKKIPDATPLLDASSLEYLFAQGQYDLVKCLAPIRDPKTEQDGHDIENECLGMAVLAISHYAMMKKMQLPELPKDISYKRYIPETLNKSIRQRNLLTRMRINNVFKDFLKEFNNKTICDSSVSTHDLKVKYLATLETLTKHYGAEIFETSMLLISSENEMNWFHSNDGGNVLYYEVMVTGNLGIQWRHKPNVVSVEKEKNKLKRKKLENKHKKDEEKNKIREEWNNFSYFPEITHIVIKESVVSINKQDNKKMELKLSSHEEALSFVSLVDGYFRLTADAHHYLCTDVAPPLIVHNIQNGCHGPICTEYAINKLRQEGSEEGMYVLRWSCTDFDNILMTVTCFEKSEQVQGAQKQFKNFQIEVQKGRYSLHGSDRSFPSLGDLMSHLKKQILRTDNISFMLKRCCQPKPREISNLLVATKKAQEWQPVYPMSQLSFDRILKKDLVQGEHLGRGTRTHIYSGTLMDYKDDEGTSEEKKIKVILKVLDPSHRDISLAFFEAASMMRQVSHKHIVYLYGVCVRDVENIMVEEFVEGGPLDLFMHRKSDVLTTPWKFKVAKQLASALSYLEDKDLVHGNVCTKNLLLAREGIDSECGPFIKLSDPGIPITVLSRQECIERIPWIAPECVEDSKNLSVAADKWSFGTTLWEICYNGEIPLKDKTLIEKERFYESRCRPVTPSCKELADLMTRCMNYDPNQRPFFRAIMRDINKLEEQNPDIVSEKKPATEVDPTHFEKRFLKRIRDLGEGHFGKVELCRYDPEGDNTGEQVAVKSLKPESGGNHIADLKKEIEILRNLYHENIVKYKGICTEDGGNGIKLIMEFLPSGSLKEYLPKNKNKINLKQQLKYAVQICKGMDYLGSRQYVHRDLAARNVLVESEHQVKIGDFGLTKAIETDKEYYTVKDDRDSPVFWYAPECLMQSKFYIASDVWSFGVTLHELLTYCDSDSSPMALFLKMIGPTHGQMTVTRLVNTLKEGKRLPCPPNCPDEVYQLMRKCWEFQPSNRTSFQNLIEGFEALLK
Sequence of JAK2 (O60674 whole entry, species assumed): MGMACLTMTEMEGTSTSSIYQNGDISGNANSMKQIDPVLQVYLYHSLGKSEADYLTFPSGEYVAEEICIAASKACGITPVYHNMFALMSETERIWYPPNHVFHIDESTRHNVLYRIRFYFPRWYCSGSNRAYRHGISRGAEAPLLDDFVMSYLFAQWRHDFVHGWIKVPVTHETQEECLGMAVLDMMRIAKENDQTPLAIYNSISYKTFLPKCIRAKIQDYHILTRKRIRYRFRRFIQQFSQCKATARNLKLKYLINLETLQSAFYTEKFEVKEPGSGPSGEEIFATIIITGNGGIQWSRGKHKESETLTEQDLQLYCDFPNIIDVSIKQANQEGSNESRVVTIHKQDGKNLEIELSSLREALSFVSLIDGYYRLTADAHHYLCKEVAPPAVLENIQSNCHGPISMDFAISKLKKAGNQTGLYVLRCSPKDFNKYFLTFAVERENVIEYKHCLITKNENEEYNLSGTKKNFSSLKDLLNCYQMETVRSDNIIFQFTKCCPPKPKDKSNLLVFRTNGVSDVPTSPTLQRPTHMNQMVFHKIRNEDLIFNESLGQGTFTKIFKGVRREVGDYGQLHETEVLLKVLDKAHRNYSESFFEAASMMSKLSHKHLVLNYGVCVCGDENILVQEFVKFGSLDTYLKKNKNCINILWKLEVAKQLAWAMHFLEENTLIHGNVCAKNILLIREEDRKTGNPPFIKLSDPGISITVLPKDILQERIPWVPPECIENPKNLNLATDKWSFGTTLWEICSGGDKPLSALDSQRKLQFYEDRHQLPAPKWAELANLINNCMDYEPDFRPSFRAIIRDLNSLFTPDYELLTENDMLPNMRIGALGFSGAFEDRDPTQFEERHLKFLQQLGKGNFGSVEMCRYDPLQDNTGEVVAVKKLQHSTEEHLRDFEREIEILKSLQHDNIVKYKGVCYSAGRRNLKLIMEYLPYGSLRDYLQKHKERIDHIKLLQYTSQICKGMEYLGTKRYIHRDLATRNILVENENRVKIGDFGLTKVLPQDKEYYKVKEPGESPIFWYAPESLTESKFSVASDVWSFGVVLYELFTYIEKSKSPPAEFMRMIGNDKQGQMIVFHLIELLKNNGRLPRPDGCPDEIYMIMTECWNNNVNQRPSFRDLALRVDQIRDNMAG

Compound | pIC50 (JAK2) | pIC50 (JAK3) | pIC50 (JAK1)
N#CCNC(=O)c1ccc(-c2nc(Nc3ccccc3)nc3ccsc23)cc1 [Compound T-16, N-(Cyanomethyl)-4-(2-(phenylamino)thieno[3,2-d]pyrimidin-4-yl)benzamide] | < 6.00 | < 6.00 | < 6.00
CCS(=O)(=O)N1CC(CC#N)(n2cc(-c3nc(Nc4ccc(-n5cccn5)cc4)nc4ccsc34)cn2)C1 [Compound T-11, 2-(3-(4-(2-((4-(1H-Pyrazol-1-yl)phenyl)amino)thieno[3,2-d]pyrimidin-4-yl)-1H-pyrazol-1-yl)-1-(ethylsulfonyl)azetidin-3-yl)acetonitrile] | > 7.30 | < 6.00 | 6.30 to 7.30
CCS(=O)(=O)N1CC(CC#N)(n2cc(-c3nc(Nc4cnn(C)c4)nc4ccsc34)cn2)C1 [Compound T-15, 2-(1-(Ethylsulfonyl)-3-(4-(2-((1-methyl-1H-pyrazol-4-yl)amino)thieno[3,2-d]pyrimidin-4-yl)-1H-pyrazol-1-yl)azetidin-3-yl)acetonitrile] | > 7.30 | 6.30 to 7.30 | > 7.30
CCS(=O)(=O)N1CC(CC#N)(n2cc(-c3nc(Nc4cccnc4)nc4ccsc34)cn2)C1 [Compound T-26, 2-(1-(Ethylsulfonyl)-3-(4-(2-(pyridin-3-ylamino)thieno[3,2-d]pyrimidin-4-yl)-1-pyrazol-1-yl)azetidin-3-yl)acetonitrile] | > 7.30 | 6.30 to 7.30 | > 7.30
CCS(=O)(=O)N1CC(CC#N)(n2cc(-c3nc(Nc4cnn(CCN5CCOCC5)c4)nc4ccsc34)cn2)C1 [Compound T-53, 2-(1-(Ethylsulfonyl)-3-(4-(2-((1-(2-morpholinoethyl)-1H-pyrazol-4-yl)amino)thieno[3,2-d]pyrimidin-4-yl)-1H-pyrazol-1-yl)azetidin-3-yl)acetonitrile] | > 7.30 | > 7.30 | 6.30 to 7.30
CCS(=O)(=O)N1CC(CC#N)(n2cc(-c3nc(Nc4ccc(S(C)(=O)=O)cc4)nc4sccc34)cn2)C1 [Compound T-18, 2-(1-(Ethylsulfonyl)-3-(4-(2-((4-(methylsulfonyl)phenyl)amino)thieno[2,3-d]pyrimidin-4-yl)-1H-pyrazol-1-yl)azetidin-3-yl)acetonitrile] | > 7.30 | 6.00 to 6.30 | 6.30 to 7.30
Cn1cc(Nc2nc(-c3cnn(C4(CC#N)CCOCC4)c3)c3sccc3n2)cn1 [Compound T-44, 2-(4-(4-(2-((1-Methyl-1H-pyrazol-4-yl)amino)thieno[3,2-d]pyrimidin-4-yl)-1H-pyrazol-1-yl)tetrahydro-2H-pyran-4-yl)acetonitrile] | > 7.30 | 6.30 to 7.30 | 6.30 to 7.30
CCS(=O)(=O)N1CC(CC#N)(n2cc(-c3nc(Nc4ccc(C#N)nc4)nc4ccsc34)cn2)C1 [Compound T-22, 5-((4-(1-(3-(Cyanomethyl)-1-(ethylsulfonyl)azetidin-3-yl)-1H-pyrazol-4-yl)thieno[3,2-d]pyrimidin-2-yl)amino)picolinonitrile] | > 7.30 | < 6.00 | < 6.00
N#Cc1ccc(-c2nc(Nc3ccccc3)nc3ccsc23)cc1F [Compound T-56, 2-Fluoro-4-(2-(phenylamino)thieno[3,2-d]pyrimidin-4-yl)benzonitrile] | < 6.00 | < 6.00 | < 6.00
CCS(=O)(=O)N1CC(CC#N)(n2cc(-c3nc(NC(=O)C4CC4)nc4ccsc34)cn2)C1 [Compound T-29, N-(4-(1-(3-(Cyanomethyl)-1-(ethylsulfonyl)azetidin-3-yl)-1H-pyrazol-4-yl)thieno[3,2-d]pyrimidin-2-yl)cyclopropanecarboxamide] | > 7.30 | < 6.00 | 6.30 to 7.30
CC(C)(C)NS(=O)(=O)c1ccc(-c2nc(Nc3ccc(N4CCOCC4)cc3)nc3ccsc23)cc1 [Compound T-17, N-(Tert-butyl)-4-(2-((4-morpholinophenyl)amino)thieno[3,2-d]pyrimidin-4-yl)benzenesulfonamide] | < 6.00 | < 6.00 | < 6.00

Other lines, results leading:

pIC50 (JAK2) | pIC50 (JAK3) | pIC50 (JAK1) | Compound
> 7.30 | > 7.30 | > 7.30 | CCS(=O)(=O)N1CC(CC#N)(n2cc(-c3nc(Nc4cnn(CCC#N)c4)nc4ccsc34)cn2)C1 [Compound T-71, 3-(4-((4-(1-(3-(Cyanomethyl)-1-(ethylsulfonyl)azetidin-3-yl)-1H-pyrazol-4-yl)thieno[3,2-d]pyrimidin-2-yl)amino)-1H-pyrazol-1-yl)propanenitrile]
> 7.30 | 6.30 to 7.30 | 6.30 to 7.30 | C[C@H](CO)n1cc(Nc2nc(-c3cnn(C4(CC#N)COC4)c3)c3sccc3n2)cn1 [Compound T-82, (R)-2-(3-(4-(2-((1-(1-Hydroxypropan-2-yl)-1H-pyrazol-4-yl)amino)thieno[3,2-d]pyrimidin-4-yl)-1H-pyrazol-1-yl)oxetan-3-yl)acetonitrile]
> 7.30 | > 7.30 | > 7.30 | CCS(=O)(=O)N1CC(CC#N)(n2cc(-c3nc(Nc4cnn(CCCc5nn[nH]n5)c4)nc4ccsc34)cn2)C1 [Compound T-61, 2-(3-(4-(2-((1-(3-(2H-Tetrazol-5-yl)propyl)-1H-pyrazol-4-yl)amino)thieno[3,2-d]pyrimidin-4-yl)-1H-pyrazol-1-yl)-1-(ethylsulfonyl)azetidin-3-yl)acetonitrile]
> 7.30 | 6.30 to 7.30 | 6.30 to 7.30 | CS(=O)(=O)CCCn1cc(Nc2nc(-c3cnn(C4(CC#N)CCC4)c3)c3sccc3n2)cn1 [Compound T-73, 2-(1-(4-(2-((1-(3-(Methylsulfonyl)propyl)-1H-pyrazol-4-yl)amino)thieno[3,2-d]pyrimidin-4-yl)-1H-pyrazol-1-yl)cyclobutyl)acetonitrile]
> 7.30 | > 7.30 | > 7.30 | CCS(=O)(=O)N1CC(CC#N)(n2cc(-c3nc(Nc4cnn(C5CCN(C)CC5)c4)nc4ccsc34)cn2)C1 [Compound T-64, 2-(1-(Ethylsulfonyl)-3-(4-(2-((1-(1-methylpiperidin-4-yl)-1H-pyrazol-4-yl)amino)thieno[3,2-d]pyrimidin-4-yl)-1H-pyrazol-1-yl)azetidin-3-yl)acetonitrile]
> 7.30 | 6.00 to 6.30 | 6.00 to 6.30 | CCS(=O)(=O)N1CC(CC#N)(n2cc(-c3nc(Nc4cnc(N5CCOCC5)nc4)nc4ccsc34)cn2)C1 [Compound T-63, 2-(1-(Ethylsulfonyl)-3-(4-(2-((2-morpholinopyrimidin-5-yl)amino)thieno[3,2-d]pyrimidin-4-yl)-1H-pyrazol-1-yl)azetidin-3-yl)acetonitrile]
> 7.30 | > 7.30 | > 7.30 | CCS(=O)(=O)N1CC(CC#N)(n2cc(-c3nc(Nc4cnn(CCCN5CCOCC5)c4)nc4ccsc34)cn2)C1 [Compound T-60, 2-(1-(Ethylsulfonyl)-3-(4-(2-((1-(3-morpholinopropyl)-1H-pyrazol-4-yl)amino)thieno[3,2-d]pyrimidin-4-yl)-1H-pyrazol-1-yl)azetidin-3-yl)acetonitrile]

Source: US9745320B2, “Five-and-six-membered heterocyclic compound, and preparation method, pharmaceutical composition and use thereof” (SHANGHAI CHEMEXPLORER CO., LTD., priority 2013, dated 2017)
